Measurements published in patent publication US6541463B1, “Inhibitors of type 5 and type 3 17β-hydroxysteroid dehydrogenase and methods for their use” (Endorecherche, Inc., priority 1998, dated 2003).
Like-named read-outs stand apart in the source and are kept apart here.

Assays:
[1] = system: Shionogi mouse mammary carcinoma cells; experiment: Androgenic activity: stimulation of proliferation of Shionogi cells; format: cell-based
Method in brief: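 Values are the percent stimulation of cell number, measured by Coulter counter, after 10–12 days of exposure to 10^−7 M or 10^−6 M compound. Androgen-sensitive Shionogi cells were seeded at 20 000 cells/well in triplicate in dextran-charcoal-treated FCS medium, refreshed every 3–4 days.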

[2] = system: Shionogi mouse mammary carcinoma cells; experiment: Antiandrogenic activity: inhibition of DHT-induced proliferation of Shionogi cells; format: cell-based
Method in brief: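 Readout was direct Coulter counting of Shionogi mouse mammary tumour cells after 10–12 days' culture with increasing concentrations of agents and DHT, with medium refreshed every 3–4 days. Medium used dextran-coated charcoal-treated serum. Cells were plated at 20 000/well in triplicate, and ED50 came from least-square regression.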

[3] = Table 4′, DHT-induced proliferation, E^−6 (10^−6 M)
[4] = Table 4′, DHT-induced proliferation, E^−7

SMILES	Androgenic Activity Shionogi, Basal E^−6 ([1]; Table 4′, E^−6)	Androgenic Activity Shionogi, Basal E^−7 ([1]; Table 4′, E^−7)	Antiandrogenic Activity Shionogi, DHT E^−6 [2, 3]	Antiandrogenic Activity Shionogi, DHT E^−7 [2, 4]	also measured
C[C@]12CCC(=O)C=C1C=C[C@@H]1[C@@H]2CC[C@]2(C)C(=O)C3(CC4CC4C3)C[C@@H]12 (some centres unmarked) [EM-1299, 4,6-Androstadien-3,17-dione-16-spirobicyclo[3′.1′.0′]-hexane]					Androgenic Activity Shionogi, Basal E^−6 ([1]; E^−6): 10; Androgenic Activity Shionogi, Basal E^−7 ([1]; E^−7): 5; Antiandrogenic Activity Shionogi, DHT E^−6 ([2]; with DHT, E^−6): −27; Antiandrogenic Activity Shionogi, DHT E^−7 ([2]; with DHT, E^−7): 0
COc1ccc2c(c1)C(=O)CC1C2CC[C@@]2(C)C1CC[C@@]21CCC(C)(C)C(=O)O1 (some centres unmarked) [EM-1394]	−12%	4%	−23%	0%	
CN(C)CCOc1ccc2c(c1)CCC1C2CCC2(C)C1CCC21CCC(C)(C)C(=O)O1 (centres unmarked) [EM-1389-CS]	−41%	0%	−103%	−94%	
COc1c(Br)cc2c(c1Br)CCC1C2CCC2(C)C1CCC21CCC(C)(C)C(=O)O1 (centres unmarked) [EM-1385-CS]	−28%	−11%	−61%	0%	
CC1CCC2(CCC3C4CCc5ccccc5C4CCC32C)OC1=O (centres unmarked) [EM-1025]	0%	5%	−25%	−14%	
CN(C)C(=O)c1ccc2c(c1)CCC1C2CCC2(C)C1CCC21CCC(C)(C)C(=O)O1 (centres unmarked) [EM-1403]	0%	19%	−54%	0%	inhibition at 1 µM ([2]; Mus musculus, 10^−6 M inhibitor, negative number = stimulation reduced, read-out: percentage of inhibition of DHT-induced proliferation of Shionogi cells): 54%
CSCCOc1ccc2c(c1)CCC1C2CCC2(C)C1CCC21CCCC(=O)O1 [CS-242, 3-Methylthioethyloxy-1,3,5(10)-estratrien-17(R)-spiro-2′-(6′-oxo) Tetrahydropyran]	−32%	0%	−66%	9%	
COC(=O)c1cc2c(cc1O)CCC1C2CCC2(C)C1CCC21CCC(C)(C)C(=O)O1 (centres unmarked) [EM-01662]	−27%	0%	−51%	−11%	
CC1(C)CCC2(CCC3C4CCc5cc(C(=O)OCc6ccccc6)ccc5C4CCC32C)OC1=O (centres unmarked) [EM-1398]	−10%	13%	−37%	0%	
COCCOc1cc2c(cc1Cl)C1CCC3(C)C(CCC34CCC(C)(C)C(=O)O4)C1CC2 (centres unmarked) [EM-1371-CS]	92%	58%	−76%	0%	
CC(=O)[C@@]1(OC(=O)CCCCF)CCC2C3C=C(C)C4=CC(=O)CC[C@]4(C)C3CC[C@@]21C (some centres unmarked) [EM-1195-CS]					Androgenic Activity Shionogi, Basal ([1]; E^−6): −34; Androgenic Activity Shionogi, Basal ([1]; E^−7): −27; Antiandrogenic Activity Shionogi, DHT ([2]; E^−6): −110; Antiandrogenic Activity Shionogi, DHT ([2]; E^−7): −105
CC1CC(=O)OC2(CCC3C4CCc5cc(O)ccc5C4CCC32C)C1 [PB-132-142, 3-Hydroxy-1,3,5(10)-estratrien-17(R)-spiro-2′-(4′-methyl-6′-oxo)tetrahydropyran]	−17%	25%	−13%	0%	
COCCOc1ccc2c(c1)CCC1C2CCC2(C)C1CCC21CCC(C)(C)C(=O)O1 [EM-1368-CS, 3-Methoxyethoxy-1,3,5(10)-estratrien-17(R)-spiro-2′-(5′,5′-dimethyl-6′-oxo)-tetrahydropyran]	−22%	8%	−44%	0%	
CC1CCC2(CCC3C4CCc5cc(O)c([N+](=O)[O-])cc5C4CCC32C)OC1=O [EM-1131, 2-Nitro-1,3,5(10)-estratrien-3-ol-17(R)-spiro-2′-(5′-methyl-6′-oxo)tetrahydropyran]	0%	0%	−47%	−15%	
CCCCN(C)C(=O)[C@@]1(OC(C)=O)CCC2C3C=C(C)C4=CC(=O)CC[C@]4(C)C3CC[C@@]21C (some centres unmarked) [EM-1165]					Androgenic Activity Shionogi, Basal ([1]; E^−6): −17; Androgenic Activity Shionogi, Basal ([1]; E^−7): 5; Antiandrogenic Activity Shionogi, DHT ([2]; E^−6): −102; Antiandrogenic Activity Shionogi, DHT ([2]; E^−7): −14; IC50 ([2]; Mus musculus, read-out: Antiandrogenic Activity Shionogi, DHT [IC50]): 232 nM
CC(C)C[C@@H]1CC2C3C=CC4=CC(=O)CC[C@]4(C)C3CC[C@]2(C)C1=O (some centres unmarked) [EM-1273-CS]					Androgenic Activity Shionogi, Basal E^−6 ([1]; E^−6): −36; Androgenic Activity Shionogi, Basal E^−7 ([1]; E^−7): 12; Antiandrogenic Activity Shionogi, DHT E^−6 ([2]; with DHT, E^−6): −43; Antiandrogenic Activity Shionogi, DHT E^−7 ([2]; with DHT, E^−7): 9
CC12CCC3c4ccc(F)cc4CCC3C1CCC21CCCC(=O)O1 (centres unmarked) [EM-1170-CS]	−27%	12%	−38%	15%	
CC1(C)CC[C@@]2(CCC3C4CCc5cc(C(N)=O)ccc5C4CCC32C)OC1=O (some centres unmarked) [EM-1404]	0%	0%			IC50 ([2]; Mus musculus, Table 4′, bracketed values, read-out: Antiandrogenic Activity Shionogi, DHT [IC50 (nM)]): ~1000 nM
CC(=O)O[C@]1(C(=O)N(C)C)CCC2C3C=C(C)C4=CC(=O)CC[C@]4(C)C3CC[C@@]21C (some centres unmarked) [EM-1159]					Androgenic Activity Shionogi, Basal ([1]; E^−6): −14; Androgenic Activity Shionogi, Basal ([1]; E^−7): 15; Antiandrogenic Activity Shionogi, DHT ([2]; E^−6): −71; Antiandrogenic Activity Shionogi, DHT ([2]; E^−7): 1
CC1(C)CCC2(CCC3C4CCc5ccccc5C4CCC32C)OC1=O (centres unmarked) [CS-224]	0%	17%	−11%	23%	
CC12C=CC(=O)C=C1C=CC1C2CCC2(C)C(=O)C3(CCCCC3)CC12 (centres unmarked) [CS-204]					Androgenic Activity Shionogi, Basal E^−6 ([1]; E^−6): −17; Androgenic Activity Shionogi, Basal E^−7 ([1]; E^−7): 0; Antiandrogenic Activity Shionogi, DHT E^−6 ([2]; with DHT, E^−6): −13; Antiandrogenic Activity Shionogi, DHT E^−7 ([2]; with DHT, E^−7): −25
COC(=O)CCCC(=O)O[C@]1(C(C)=O)CC[C@H]2[C@@H]3C=C(C)C4=CC(=O)CC[C@]4(C)[C@H]3CC[C@@]21C [EM-1007, 6-Methyl-4,6-pregnadien-17α-ol-3,20-dione 4′-Carbomethoxybutyrate]					Androgenic Activity Shionogi, Basal ([1]; E^−6): −31; Androgenic Activity Shionogi, Basal ([1]; E^−7): 0; Antiandrogenic Activity Shionogi, DHT ([2]; E^−6): −76; Antiandrogenic Activity Shionogi, DHT ([2]; E^−7): −14
COc1ccc2c(c1)C(=O)CC1C3CCC4(CCC(C)(C)C(=O)O4)C3(C)CCC21O (centres unmarked) [EM-1386]	−17%	5%	−27%	0%	
C=CCC1CCC2(CCC3C4CCc5cc(O)ccc5C4CCC32C)OC1=O [PB-132-152, 3-Hydroxy-1,3,5(10)-estratrien-17(R)-2′-(5′-allyl-6′-oxo)tetrahydropyran]	0%	39%	−19%	14%	
COCCOc1cc2c(cc1C(=O)O)C1CCC3(C)C(CCC34CCC(C)(C)C(=O)O4)C1CC2 [EM-1405, 2-Carboxy-3-(2″-methoxyethyloxy)-1,3,5(10)-estratrien-17(R)-spiro-2′-(5′,5′-dimethyl-6′-oxo)tetrahydropyran]	0%	0%	0%	0%	
C[C@]12CCC3c4cc([N+](=O)[O-])c(O)cc4CCC3C1CC[C@@]21CCCC(=O)O1 (stereo partly drawn) [EM-1124, 2-Nitro-1,3,5(10)-estraetriene-3-ol-17(R)-spiro-2′-(6′-oxo)tetrahydropyran]	−11%	0%	−65%	0%	
CC(=O)O[C@]1(C)C(=O)CCC2C3C=C(C)C4=CC(=O)C=C[C@]4(C)C3CC[C@@]21C (some centres unmarked) [CS-237]					Androgenic Activity Shionogi, Basal E^−6 ([1]; E^−6): −29; Androgenic Activity Shionogi, Basal E^−7 ([1]; E^−7): −22; IC50 ([2]; Mus musculus, with DHT, value in square brackets on second line, read-out: Antiandrogenic Activity Shionogi DHT [IC50 (nM)]): 95 nM; Antiandrogenic Activity Shionogi, DHT E^−6 ([2]; with DHT, E^−6): −106; Antiandrogenic Activity Shionogi, DHT E^−7 ([2]; with DHT, E^−7): −51
CC1(C)CC[C@@]2(CCC3C4CCc5cc6oncc6cc5C4CC[C@@]32C)OC1=O (stereo partly drawn) [EM-1407-CS, 1,3,5(10)-estratrien-(2,3-oximino)-17(R)-spiro-2′-(5′,5′-dimethyl-6′-oxo)tetrahydropyran]	−23%	0%	−96%	−16%	
CC1(C)CCC2(CCC3C4CCc5cc(O)c(C(N)=O)cc5C4CCC32C)OC1=O (centres unmarked) [EM-01660]	−31%	−4%	−51%	−20%	
CC1(C)CCC2(CCC3C4CCc5c(cc(Cl)c(O)c5Cl)C4CCC32C)OC1=O (centres unmarked) [EM-1391-CS]	−13%	0%	−19%	0%	
